Assay results reported in ChEMBL document CHEMBL4431294 (Medchemcomm, 2016).
Values after ≈ are worked out from the molar mass of the structure shown.

Experiments:
Escherichia coli [1] = experiment: Antibacterial activity against Escherichia coli; format: functional
[2] = system: Mycobacterium tuberculosis; experiment: Antibacterial activity against Mycobacterium tuberculosis 607; format: functional
[3] = system: Bordetella bronchiseptica; experiment: Antibacterial activity against Bordetella bronchiseptica; format: functional
Klebsiella pneumoniae [4] = experiment: Antibacterial activity against Klebsiella pneumoniae; format: functional
Staphylococcus aureus [5] = experiment: Antibacterial activity against Staphylococcus aureus; format: functional
[6] = Antibacterial activity against Eberthella typhosa; format: functional
[7] = system: Salmonella enterica subsp. enterica serovar Paratyphi B; experiment: Antibacterial activity against Salmonella schottmuelleri; format: functional
Proteus vulgaris = experiment: Antibacterial activity against Proteus vulgaris; format: functional
Bacillus subtilis = experiment: Antibacterial activity against Bacillus subtilis; format: functional
Pseudomonas aeruginosa [8] = experiment: Antibacterial activity against Pseudomonas aeruginosa after 12 hrs; format: functional, organism-based
[9] = Binding affinity to 22-mer TAT triplex DNA (unknown origin) at 8 uM by isothermal titration calorimetry
Escherichia coli [10] = experiment: Antibacterial activity against Escherichia coli ATCC 25922; format: functional
Staphylococcus aureus [11] = experiment: Antibacterial activity against Staphylococcus aureus ATCC 29213; format: functional
Pseudomonas aeruginosa [12] = experiment: Antibacterial activity against Pseudomonas aeruginosa ATCC 27853 harboring APH(3'); format: functional
Staphylococcus aureus [13] = experiment: Antibacterial activity against Staphylococcus aureus harboring ANT(4'); format: functional
Klebsiella pneumoniae [14] = experiment: Antibacterial activity against Klebsiella pneumoniae ATCC 10031; format: functional
[15] = target: Rev responsive element (RRE) RNA; experiment: Displacement of fluorescein-labeled RevF1 from HIV1 66-nucleotide RRE RNA by fluorescence anisotropy method; format: nucleic-acid assay, Human immunodeficiency virus 1
[16] = Binding affinity to pre-microRNA-27a (unknwon origin) at 500 nM by spectrofluorometric method

In the case of NCC1O[C@H](O[C@H]2[C@@H](O)[C@H](O[C@@H]3[C@@H](O)[C@H](N)C[C@H](N)[C@H]3O[C@H]3O[C@H](CN)[C@@H](O)[C@H](O)[C@H]3N)O[C@@H]2CO)[C@H](N)[C@@H](O)[C@@H]1O (some centres not stated), the MIC (Escherichia coli [1]) is reported as 0.1 µg/mL (≈ 0.163 µM), the MIC [2] is reported as 0.33 µg/mL (≈ 0.537 µM) and the MIC [3] is reported as 0.5 µg/mL (≈ 0.813 µM). The MIC (Klebsiella pneumoniae [4]) was 0.05 µg/mL (≈ 0.0813 µM), the MIC (Staphylococcus aureus [5]) was 0.017 µg/mL (≈ 0.0277 µM) and the MIC [6] was 0.033 µg/mL (≈ 0.0537 µM). It also gave an MIC [7] of 0.1 µg/mL (≈ 0.163 µM), an MIC (Proteus vulgaris) of 1 µg/mL (≈ 1.63 µM) and an MIC (Bacillus subtilis) of 0.01 µg/mL (≈ 0.0163 µM).
NC[C@H]1O[C@H](O[C@H]2[C@H](NCCCCCCCCNC(=O)c3cc4c(cn3)[nH]c3ccccc34)[C@@H](O)[C@H](N)C[C@@H]2N)[C@H](N)[C@@H](O)C1O (single isomer, unassigned) gave an IC50 (Pseudomonas aeruginosa [8]) of 85.4 µg/mL (≈ 133 µM).
Work on CC(=O)c1ccc2c(ccc3nc4c(NCCCNC(=O)NCCSC[C@H]5O[C@@H](O[C@@H]6[C@@H](O)[C@H](N)C[C@H](N)[C@H]6O[C@H]6O[C@H](CN)[C@@H](O)[C@H](O)[C@H]6N)[C@H](O)[C@@H]5O[C@H]5OC(CN)[C@@H](O)[C@H](O)[C@H]5N)nc5ccccc5c4nc32)c1 (some centres not stated) yielded a Kd [9] of 27 nM.
For NCC1=CC[C@@H](N)[C@@H](O[C@H]2[C@H](O[C@@H]3O[C@H](CO)[C@@H](O[C@H]4O[C@@H](CN)[C@@H](O)[C@H](O)[C@H]4N)[C@H]3O)[C@@H](O)[C@H](N)C[C@@H]2N)O1, the MIC (Escherichia coli [10]) was 0.5 to 2 µg/mL (≈ 0.861 to 3.44 µM), the MIC (Staphylococcus aureus [11]) was 0.5 to 2 µg/mL (≈ 0.861 to 3.44 µM) and the MIC (Pseudomonas aeruginosa [12]) was 0.5 to 2 µg/mL (≈ 0.861 to 3.44 µM). For the same compound, the MIC (Staphylococcus aureus [13]) was 0.5 to 2 µg/mL (≈ 0.861 to 3.44 µM) and the MIC (Klebsiella pneumoniae [14]) was 0.5 to 2 µg/mL (≈ 0.861 to 3.44 µM).
With NC[C@H]1O[C@H](O[C@H]2[C@H](O)[C@@H](O)[C@H](N)C[C@@H]2N)[C@H](N)[C@@H](O)[C@@H]1O [NEAMINE] the MIC (Escherichia coli [1]) was 1 µg/mL (≈ 3.1 µM), the MIC [2] was 5 µg/mL (≈ 15.5 µM) and the MIC [3] was 3.3 µg/mL (≈ 10.2 µM). It also gave an MIC (Klebsiella pneumoniae [4]) of 0.5 µg/mL (≈ 1.55 µM), an MIC (Staphylococcus aureus [5]) of 0.13 µg/mL (≈ 0.403 µM) and an MIC [6] of 0.17 µg/mL (≈ 0.527 µM). For the same compound, the MIC [7] was 1 µg/mL (≈ 3.1 µM), the MIC (Proteus vulgaris) was under 0.33 µg/mL and the MIC (Bacillus subtilis) was 1 µg/mL (≈ 3.1 µM).
Compound NCC1O[C@H](O[C@H]2[C@@H](O)[C@H](O[C@@H]3[C@@H](O)[C@H](N)C[C@H](N)[C@H]3O[C@H]3O[C@H](CN)[C@@H](O)[C@H](O)[C@H]3N)O[C@@H]2CNc2c3ccccc3nc3ccccc23)[C@H](N)[C@@H](O)[C@@H]1O (some centres not stated) has a Kd [15] of at most 10 nM.
In the case of CN1CCN(c2ccc3nc(-c4ccc5[nH]c(-c6ccc(OCc7cn(CCCCC(=O)C(CCn8cc(OCc9cn(C[C@H]%10O[C@@H](O[C@@H]%11[C@@H](O)[C@H](N)C[C@H](N)[C@H]%11O[C@H]%11O[C@H](CN)[C@@H](O)[C@H](O)[C@H]%11N)[C@H](O)[C@@H]%10O[C@H]%10O[C@@H](CN)[C@@H](O)[C@H](O)[C@H]%10N)nn9)nn8)CCn8cc(OCc9cn(C[C@H]%10O[C@@H](O[C@@H]%11[C@@H](O)[C@H](N)C[C@H](N)[C@H]%11O[C@H]%11O[C@H](CN)[C@@H](O)[C@H](O)[C@H]%11N)[C@H](O)[C@@H]%10O[C@H]%10O[C@@H](CN)[C@@H](O)[C@H](O)[C@H]%10N)nn9)nn8)nn7)cc6)cc5c4)[nH]c3c2)CC1, the Ka [16] is reported as 1.2 to 7.4 ×10⁸ /M.
